Test results published in patent US12479834B2, “Phenol compound or salt thereof” (TAIHO PHARMACEUTICAL CO., LTD., priority 2019, dated 2025).

Columns and labels:
[1] = biological target: T1, G12C K-Ras4B (1-169) (Homo sapiens, UniProt P01116, G12C); assay: Binding to KRAS G12C mutant, compound binding rate by LC-MS; settings: final compound concentration 2 μM, 1 μM protein, 2 hours at 25° C.
T1 construct: G12C K-Ras4B (1-169) protein, which was a KRAS G12C mutant; His tag (N, cleaved yes); made in house; host or cells: E. coli BL21 (DE3)
Procedure, shortened: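 Covalent labelling at 2 μM final compound on a mix of 1 μM each wild-type and G12C K-Ras4B (1-169) (E. coli-expressed, tag removed) in 1×TBS, 0.1 mM TCEP, 2 h at 25° C., quenched with formic acid. Intact-protein ESI Q-TOF LC-MS; binding rate from adduct vs unbound protein signal, graded A–E in 20% bands.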

[2] = biological target: T2, KRAS G12C mutant (Homo sapiens, UniProt P01116, G12C); assay: Inhibition of SOS1-mediated nucleotide (GDP-GTP) exchange reaction of KRAS G12C mutant, BODIPY FL GDP fluorescence; format: biochemical; settings: preincubated 25° C. 4 hours with 25 nM KRAS G12C bound with BODIPY FL GDP; SOS1 100 nM, GppNHp 1 μM, 30 minutes
T2 construct: 50 μM G12C K-Ras4B (1-169) protein and 1 mM BODIPY® FL GDP; His tag (N, cleaved yes); made in house; host or cells: E. coli BL21 (DE3)
Procedure, shortened: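 KRAS G12C (1-169) loaded with BODIPY FL GDP (25 nM) was preincubated with compound (5% DMSO) for 4 h at 25 °C. Exchange then ran 30 min with SOS1 (564-1049, 100 nM) and 1 µM GppNHp. IC50 came from the 485/520 nm fluorescence change, normalized to DMSO and no-GppNHp controls.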

[3] = system: NCI-H358 cells; assay: Growth inhibition of KRAS-G12C mutant cell line NCI-H358 (CellTiter-Glo 2.0); format: cell-based; settings: Homo sapiens, 72 h; NCI-H358, 3-day culture with compound
Experimental: KRAS-G12C mutant human lung cancer cell line NCI-H358 cells (ATCC, Cat #: CRL-5807) were suspended in RPMI1640 medium (manufactured by Fujifilm Wako Pure Chemical Corp.) containing 10% fetal bovine serum. The cell suspension was seeded at 500 cells/well into the wells of a 384-well flat-bottom microplate and cultured at 37° C. for 1 day in an incubator containing 5% CO2. The compound of the present invention was dissolved in DMSO and diluted with DMSO such that the concentration of the test compound was 500 times the final concentration. The solution of the test compound in DMSO was diluted with the medium used for suspending the cells, and the resultant was added to each well of the cell culture plate such that the final concentration of DMSO was 0.2%, followed by culture at 37° C. for another 3 days in an incubator containing 5% CO2.
Growth inhibition rate (%)=(C−T)/(C)×100 • T: the emission intensity in a well supplemented with the test compound. • C: the emission intensity in a well not supplemented with the test compound.

Compound	binding rate for G12C K-Ras4B (1-169) [1]	IC50 [2]	IC50 [3]
C=CC(=O)N1CC(NC(=O)c2cnc(CNc3cc(C(C)(C)C)c(Cl)cc3O)n2C)C1 [Example 18, N-(1-Acryloylazetidin-3-yl)-2-(((5-(tert-butyl)-4-chloro-2-hydroxyphenyl)amino)methyl)-1-methyl-1H-imidazole-5-carboxamide]	A (80% or more)	11 nM	562 nM
C=CC(=O)N1CC(N(C)C(=O)c2nc(CNc3cc(C(C)(C)C)c(Cl)cc3O)cs2)C1 [Example 29, N-(1-Acryloylazetidin-3-yl)-4-(((5-(tert-butyl)-4-chloro-2-hydroxyphenyl)amino)methyl)-N-methylthiazole-2-carboxamide]	A (80% or more)	12 nM	1110 nM
C=CC(=O)N1CC(NC(=O)c2c(C)nc(CNc3cc(C(C)(C)C)c(Cl)cc3O)n2CCC)C1 [Example 44, N-(1-Acryloylazetidin-3-yl)-2-(((5-(tert-butyl)-4-chloro-2-hydroxyphenyl)amino)methyl)-4-methyl-1-propyl-1H-imidazole-5-carboxamide]	A (80% or more)	9 nM	511 nM
C=CC(=O)N1CC(NC(=O)c2ccc(CNc3cc(C(C)(C)C)c(Cl)cc3O)o2)C1 [Example 1, N-(1-Acryloylazetidin-3-yl)-5-(((5-(tert-butyl)-4-chloro-2-hydroxyphenyl)amino)methyl)furan-2-carboxamide]	A (80% or more)	326 nM	4110 nM
C=CC(=O)N1CC(N(C)C(=O)c2ccc(CNc3cc(C(C)(C)C)c(Cl)cc3O)o2)C1 [Example 4, N-(1-Acryloylazetidin-3-yl)-5-(((5-(tert-butyl)-4-chloro-2-hydroxyphenyl)amino)methyl)-N-methylfuran-2-carboxamide]	A (80% or more)	11 nM	1170 nM

Further compounds by falling IC50 [2], results first:

binding rate for G12C K-Ras4B (1-169) [1]	IC50 [2]	IC50 [3]	Compound
A (80% or more)	50 nM	993 nM	C=CC(=O)N1CC(NC(=O)c2c(C)nc(CNc3cc(C(C)(C)C)c(C)cc3O)n2C(C)C)C1 [Example 78, N-(1-Acryloylazetidin-3-yl)-2-(((5-(tert-butyl)-2-hydroxy-4-methylphenyl)amino)methyl)-1-isopropyl-4-methyl-1H-imidazole-5-carboxamide]
A (80% or more)	12 nM	699 nM	C=CC(=O)N1CC(N(CC)C(=O)c2ccc(CNc3cc(C(C)(C)C)c(Cl)cc3O)o2)C1 [Example 5, N-(1-Acryloylazetidin-3-yl)-5-(((5-(tert-butyl)-4-chloro-2-hydroxyphenyl)amino)methyl)-N-ethylfuran-2-carboxamide]
A (80% or more)	11 nM	301 nM	C=CC(=O)N1CC(NC(=O)c2c(C)nc(CNc3cc(C(C)(C)C)c(Cl)cc3O)n2C(C)C)C1 [Example 42, N-(1-Acryloylazetidin-3-yl)-2-(((5-(tert-butyl)-4-chloro-2-hydroxyphenyl)amino)methyl)-1-isopropyl-4-methyl-1H-imidazole-5-carboxamide]
